Data reported in patent US4728640A, “Treatment of dysmenorrhea” (Roussel Uclaf, priority 1985, dated 1988).

Key:
[1] = test system: testicular steroidogensis; experiment: Inhibitory activity against testicular steroidogenesis in healthy men, single intranasal dose; format: in vivo; conditions: for steroid/testosterone level on the fourth day after administration: fourth day (until 6th day)
Protocol: The inhibitory activity of [D Ser (tbu)^6 of des Gly NH2^10 ] LH-RH ethylamide (described in German application Ser. No. 2,438,350) against testicular steroidogensis in men in good health was determined on men in good health aged 30 to 40 years. The said product was administered intranasally at a dose of 500 μg in a few drops of distilled water at 8 A.M. on the third day of the test. For 2 days prior to the treatment and for 6 days after the treatment, samples of blood were taken daily at 8 A.M., 3 P.M. and 10 P.M. On the day of administration of the LH-RH agonist, blood samples were taken at 11 A.M. and 6 P.M.
The seric concentrations of LH and FSH were measured by radioimmuno-logic dosages with double antibodies and the antibodies for measuring LH and FSH were furnished by the National Pituitary Agency of N.I.H. in Bethesda, Md. The seric concentrations of steroids was measured by radioimmuno-logic dosages in which one ml of serum was extracted with ether and the steroids were separated on a LH-20 column before measuring with radioimmuno-logic dosages. The radioimmuno-logic dosage results were determined by a program derived from model II of Rodbard et al [Second Karolinska Symposium on Research Methods in Reproductive Endrocrinology, Diczfalusky Editor, Copenhague (1970), p. 79-103]. The statistical significance was determined by the "multiple level test" of Duncan-Kramer [Kramer, Biometrics, Vol 12 (1956), p. 307]. The results are shown in the graphs on sheet 1 of the Figures filed herewith.

ovarian steroidogenosis = experiment: Inhibitory activity on ovarian steroidogenesis in women, intranasal; format: in vivo; conditions: for reduction of seric levels of progesterone compared to the controls: typical subject (sheet 3)
Protocol: The inhibitory activity of [D Ser (tbu)^6 des Gly NH2^10 ] LH-RH ethylamide on ovarian steroidogenosis in women was determined on 6 women aged 26 to 35 years with normal and regular menstrual cycles and without prior endocrinal or gynecological problems. […] Two drops of a solution containing 500 μg of [D Ser (tbu)^6 des Gly NH2^10 ] LH-RH ethylamide were deposited on each nostril at 8 A.M. and 5 P.M. of a day between the 4th and 9th day after the peak of LH-day 0. Daily blood samples were taken between 4 and 6 P.M. to measure seric levels of LH, FSH, progesterone and estradiol which were determined by radioimmuno-logictests with double antibodies. The antibodies to measure LH and FSH were furnished by the National Pituitory Agency of N.I.H. of Bethesda, Md.
Estradiol and progesterone were measured with highly specific antibodies developed against 7-(O-carboxymethyl)-oxime of estradiol and 12-(O-carboxymethyl)-oxime of progesterone, respectively [3H]17β-estradiol and ^125 I-progesterone-12-[O-carboxymethyl)-oxime] used as tracers. The serum was extracted with benzene and the steroids were separated with a LH-20 column before the determination. The radioimmunological results were exploited by the program derived from model II of Rodbard and Lewald as in Example 1 and the statistical significance was measured by the multiple level test of Ducan-Kramer of Example 1. The results are shown in the graphs of sheets 3 to 5 of the Figures.

[2] = test system: testicular steriodogenosis; experiment: Inhibitory activity on testicular steroidogenesis in a patient with prostate cancer, intranasal twice a day; format: in vivo, human; conditions: 500 μg intranasally twice a day
Text: The inhibitory activity of [D Ser (tbu)^6 des Gly NH2^10 ] […] The results are reported in the graphs of sheet 2 of the Figures.

[3] = human, single intranasal dose 500 μg
[4] = men, intranasal 500 μg, 3rd day following administration

CCNC(=O)[C@@H]1CCCN1C(=O)[C@H](CCCNC(=N)N)NC(=O)[C@H](CC(C)C)NC(=O)[C@@H](COC(C)(C)C)NC(=O)[C@H](Cc1ccc(O)cc1)NC(=O)[C@H](CO)NC(=O)[C@H](Cc1c[nH]c2ccccc12)NC(=O)[C@H](Cc1c[nH]cn1)NC(=O)[C@@H]1CCC(=O)N1 [[D Ser (tbu)^6 des Gly NH2^10] LH-RH ethylamide]
duration of the drop of seric levels of testicular steroids (testosterone and its precursors) [1, 3]: 3 days | diminution of the level of testosterone ([1]; human, single intranasal dose 500 μg, 3rd day following administration): 50% | steroid/testosterone level on the fourth day after administration [1, 3]: returned to normal | steroid/testosterone level on the fourth day after administration ([1]; human, single intranasal dose 500 μg, listed as the peptide): return to normal levels | LH and FSH plasmatic levels ([1]; men, intranasal 500 μg): increase | concentration of 17-OH-progesterone relative to initial control values [1, 4]: 40% | concentration of testosterone relative to initial control values [1, 4]: 50% | seric concentration of pregnenolone, 17-OH-pregnenolone, progesterone, 17-OH-progesterone, Δ5-androstene-3β,17β-diol and testosterone ([1]; men, intranasal 500 μg, day of treatment): increased | level of seric progesterone, course (ovarian steroidogenosis; 2 cycles of post-treatment): return to normal | level of seric progesterone, course (ovarian steroidogenosis; 2 cycles of treatment): accelerated diminution | reduction of the level of progesterone compared to the controls (ovarian steroidogenosis; 12 cycles of treatment (sheet 5), scale 13 to 127%): 46% | progesterone level as % of pretreatment cycles (base 100%) (ovarian steroidogenosis; cycles of post-treatment (12 cycles)): 99% | progesterone level as % of pretreatment cycles (base 100%) (ovarian steroidogenosis; cycles of treatment (12 cycles)): 46% | reduction of seric levels of progesterone compared to the controls (ovarian steroidogenosis; first cycle of treatment): 13% | reduction of seric levels of progesterone compared to the controls (ovarian steroidogenosis; second cycle of treatment): 34% | level of androgenic steroids [2]: diminution | level of testosterone ([2]; two weeks of treatment): stabilized at a very low level
